Laboratory results published in patent US8211939B2, “Isosorbide nitrates” (Lacer, S.A., priority 2008, dated 2012).
Like-named read-outs stand apart in the source and are kept apart here.

Legend:
[1] = test system: coronary angina caused by coronary obstruction (35% ferric chloride patch on left anterior descending coronary artery); assay: Anti-anginal activity, ferric chloride-induced coronary angina (ECG S-wave); assay type: in vivo, Male Wistar rats; settings: Rattus norvegicus, po, rat, 90 μmol/kg p.o., vs untreated control, read-out: Antianginal activity (% inhibition of S-wave decrease)
Description: Anti-Anginal Activity Assessment
Male Wistar rats weighing 250-300 g were used after an acclimatization period of five days, and animals were divided in groups of 8 for each treatment. In all experiments, rats were treated with 90 μmol/kg of each product by oral gavage using an administration volume of 10 ml/kg unless otherwise stated. The vehicle used to dissolve the products consisted of 1% Cremophor EL 27963, 1% Tween 80 and 0.5% Methocel E-15 in distilled water. […]
The procedure used to test the anti-anginal activity was that described by Hirata Y et al (Hirata Y, et al. Journal of Cardiovascular Pharmacology 1998, 31: 322-326).
After treatment, animals were anaesthetized with pentobarbital and electrodes were set for standard limb lead II electrocardiogram recording (Grass polygraph model 7, amplifier 7DA and pre-amplifier 7P1).
To induce coronary angina caused by coronary obstruction, a 35%-ferric chloride embedded mini patch was applied onto the left anterior descending coronary artery just below the left auricle. In all groups, after application of the patch, the ECG was recorded during 10 minutes. The shortening of the S-wave amplitude was measured on the recorded ECG. Data were collected with a Biopac system model MP100 connected to a Pentium PC. Results were expressed as % inhibition of S-wave decrease vs the untreated control.

[2] = test system: thrombus formation in the carotid artery (70% FeCl3 patch); assay: Anti-thrombotic activity, FeCl3-induced carotid artery thrombosis; assay type: in vivo, Male Wistar rats; settings: Rattus norvegicus, po, 90 μmol/kg p.o., % animals protected, read-out: Antithrombotic activity (% protection)
Description: Anti-Thrombotic Activity Assessment Experimental Procedure Male Wistar rats weighing 250-300 g were used after an acclimatization period of five days, and animals were divided in groups of 8 animals each for the treatments. […] The vehicle used to dissolve the products consisted of 1% Cremophor EL 27963, 1% Tween 80 and 0.5% Methocel E-15 in distilled water. After a fasting period of 8 hours with free access to drinking water each product was given by gavage 1 hour before induction of thrombosis. Thrombus formation was induced using a patch embedded with 70% FeCl3 solution applied onto the carotid artery using the same procedure described by Feuerstein G Z et al and later modified by Kurz et al (Feuerstein G Z, et al Artherioscler. Thromb. Vasc. Biol. 1999, 19: 2554-2562, Kurz K D, et al Thromb. Res. 1990, 60:269-280). Anti-thrombotic efficacy was evaluated at different times after dosage. Rats were anesthetized with sodium pentobarbital and then placed on a dorsal position over a thermal blanket laid on a surgical board and heated at 37° C. The left carotid artery was dissected and an electromagnetic blood flow probe was placed on the artery to measure blood flow. After application of the thrombotic stimuli, blood flow was monitored for the following 30 minutes. The vessel was considered occluded by the thrombus when flow reached 0.0 ml/min. Data were analysed by contingency tables using the Graph Pad Prism Program. P values were calculated using Fisher's exact test, values of p<0.05 were considered statistically significant. Results were expressed as % animals protected.

SMILES: CCCS(=O)(=O)[C@H]1CO[C@H]2[C@@H]1OC[C@H]2O[N+](=O)[O-] [Ej. 8, (3R,3aS,6S,6aS)-6-(propylsulfonyl)hexahydrofuro[3,2-b]furan-3-yl nitrate]
- inhibition in vivo at 90 µmol/kg ([1]; 1 h, 1 h): 77%
- inhibition in vivo at 90 µmol/kg ([1]; 4 h, 4 h): 25%
- responders at 90 µmol/kg ([2]; 1 h, 1 h after dosage): 100%
- responders at 90 µmol/kg ([2]; 2 h, 2 h after dosage): 50%
- responders at 90 µmol/kg ([2]; 4 h, 4 h after dosage): 0%

SMILES: CC(=O)S[C@@H]1CO[C@H]2[C@@H]1OC[C@H]2O[N+](=O)[O-] [Ej. 10, S-(3R,3aS,6R,6aS)-6-(nitrooxy)hexahydrofuro[3,2-b]furan-3-yl ethanethioate]
- inhibition in vivo at 90 µmol/kg ([1]; 1 h, 1 h): 69%
- inhibition in vivo at 90 µmol/kg ([1]; 4 h, 4 h): 57%
- responders at 90 µmol/kg ([2]; 0.5 h, ½ h after dosage): 67%
- responders at 90 µmol/kg ([2]; 1 h, 1 h after dosage): 75%
- responders at 90 µmol/kg ([2]; 2 h, 2 h after dosage): 83%
- responders at 90 µmol/kg ([2]; 4 h, 4 h after dosage): 40%

SMILES: CCS[C@@H]1CO[C@H]2[C@@H]1OC[C@H]2O[N+](=O)[O-] [Ej. 11, (3R,3aS,6R,6aS)-6-(ethylthio)hexahydrofuro[3,2-b]furan-3-yl nitrate]
- inhibition in vivo at 90 µmol/kg ([1]; 1 h, 1 h): 41%
- responders at 90 µmol/kg ([2]; 1 h, 1 h after dosage): 66%
- responders at 90 µmol/kg ([2]; 4 h, 4 h after dosage): 0%

SMILES: CCCS[C@@H]1CO[C@H]2[C@@H]1OC[C@H]2O[N+](=O)[O-] [Ej. 12, (3R,3aS,6R,6aS)-6-(propylthio)hexahydrofuro[3,2-b]furan-3-yl nitrate]
- inhibition in vivo at 90 µmol/kg ([1]; 1 h, 1 h): 14%
- inhibition in vivo at 90 µmol/kg ([1]; 2 h, 2 h): 0%
- inhibition in vivo at 90 µmol/kg ([1]; 4 h, 4 h): 0%
- responders at 90 µmol/kg ([2]; 1 h, 1 h after dosage): 32%
- responders at 90 µmol/kg ([2]; 4 h, 4 h after dosage): 16%

SMILES: CCS(=O)(=O)[C@@H]1CO[C@H]2[C@@H]1OC[C@H]2O[N+](=O)[O-] [Ej. 15, (3R,3aS,6R,6aS)-6-(ethylsulfonyl)hexahydrofuro[3,2-b]furan-3-yl nitrate]
- inhibition in vivo at 90 µmol/kg ([1]; 1 h, 1 h): 21%
- inhibition in vivo at 90 µmol/kg ([1]; 2 h, 2 h): 0%
- inhibition in vivo at 90 µmol/kg ([1]; 4 h, 4 h): 0%
- responders at 90 µmol/kg ([2]; 1 h, 1 h after dosage): 9%
- responders at 90 µmol/kg ([2]; 4 h, 4 h after dosage): 0%

SMILES: CCCS(=O)(=O)[C@@H]1CO[C@H]2[C@@H]1OC[C@H]2O[N+](=O)[O-] [Ej. 16, (3R,3aS,6R,6aS)-6-(propylsulfonyl)hexahydrofuro[3,2-b]furan-3-yl nitrate]
- inhibition in vivo at 90 µmol/kg ([1]; 1 h, 1 h): 32%
- inhibition in vivo at 90 µmol/kg ([1]; 4 h, 4 h): 30%
- responders at 90 µmol/kg ([2]; 1 h, 1 h after dosage): 40%
- responders at 90 µmol/kg ([2]; 4 h, 4 h after dosage): 20%
